The nature of this data set: Solubility. It counts as physicochemical. Conditions: CB[10] alone.

Regarding `O=C1N2CN3C(=O)N4CN5C(=O)N6CN7C(=O)N8CN9C(=O)N%10CN%11C(=O)N%12CN%13C(=O)N%14CN%15C(=O)N%16CN%17C(=O)N%18CN%19C(=O)N%20CN1C1C2N2CN%21C(=O)N(CN%22C(=O)N(CN%23C(=O)N(CN%24C(=O)N(CN%25C(=O)N(CN%26C(=O)N(CN%27C(=O)N(CN%28C(=O)N(CN%29C(=O)N(CN1C2=O)C%20C%19%29)C%18C%17%28)C%16C%15%27)C%14C%13%26)C%12C%11%25)C%10C9%24)C8C7%23)C6C5%22)C4C3%21` (stereo not shown) [CB[10], cucurbit[10]uril], the solubility result is given as “insoluble”.

The record behind these values is patent US20230373962A1, “SUPRAMOLECULAR MOLECULES FOR THE TREATMENT OF CANCER” (The University of Birmingham, priority 2020, published 2023).
